Measurements taken from patent US5428013A, “Differential diagnosis and treatment of the states of growth hormone insufficiency (or deficiency) with an alpha-2-adrenergic agonist and a growth hormone releasing peptide” (priority 1992, dated 1995).
Where no end group is shown, it is not given here.

Columns and labels:
[1] = Growth velocity of short children treated with GH; assay type: in vivo; conditions: three children treated with GH for 9 months; increased from 3 cm/yr
Excerpt: Twenty-four children (17 boys and 7 girls) with stature below the third percentile (P3), participated in the study with informed consent (parent and child). Ages of the children ranged from 7 to 13.9 years. In all but seven of the children, weight was more than or equal to P3. […] Two children had received prophylactic cranial irradiation due to brain tumors, five and three years before the study. Three children had been treated with GH for 9 months; their growth velocity increased during this therapy from 3 to 8 cm/yr. All children had been previously studied for their GH insufficiency. Studies included growth velocity, bone age, classical provocative tests for GH secretion (i.e. clonidine, insulin hypoglycemia and propranolol plus exercise), plasma somatomedin C (Sm C) (Insulin Growth Factor-I (IGF-I)) analysis, and analysis of the spontaneous pattern of nocturnal GH secretion. […] Mean (±SEM) plasma Sm C was 488±376 U/L. Mean (±SEM) growth velocity was 3.7±0.9 cm/yr.

GH secretion [2] = conditions: cited from earlier work
GH secretion [3] = experiment: Provocative tests for GH secretion in short children (clonidine, propranolol plus exercise, insulinic hypoglycemia, placebo plus GHRH, clonidine plus GHRH); assay type: in vivo
Excerpt: Twenty-four children (17 boys and 7 girls) with stature below the third percentile (P3), participated in the study with informed consent (parent and child). Ages of the children ranged from 7 to 13.9 years. In all but seven of the children, weight was more than or equal to P3. […] Two children had received prophylactic cranial irradiation due to brain tumors, five and three years before the study. […] All children had been previously studied for their GH insufficiency. Studies included growth velocity, bone age, classical provocative tests for GH secretion (i.e. clonidine, insulin hypoglycemia and propranolol plus exercise), plasma somatomedin C (Sm C) (Insulin Growth Factor-I (IGF-I)) analysis, and analysis of the spontaneous pattern of nocturnal GH secretion.
Studies commenced at 09.00 h after an overnight fast and bed rest and thirty minutes after the insertion of a nonthrombogenic catheter for blood withdrawal in a forearm vein. The study consisted of administering clonidine (Catapresan, Boehringer Ingelheim, Spain) orally at 150 micrograms/m^2 at time 0, followed by administering GHRH (GRF 1-29, Serono, Spain) as an intravenous bolus at 1 microgram/kg at time 60 minutes. An additional control for short children consisted of administering a placebo at time 0, followed by administering GHRH at time 60 minutes. Blood samples for GH analysis (RIA, BioMerieux, France) were taken at 0 and 60 minutes and at 15 minute intervals for one hour following GHRH administration. The mean intra-assay coefficient of variation was 5.7, 3.2 and 4.3% at mean GH concentrations of 1.5, 10 and 22 micrograms/L respectively. To avoid interassay variations, all samples from a subject were run in the same assay.
To confirm the uniqueness of such combined clonidine plus GHRH test in the differentiation of GH-deficient states, the theoretical GH responses to this test in short children were calculated on the basis of the equation obtained from the multiple regression analysis relating chronological and bone age with the amplitude of GH peaks in normal children. […] Responses between the -20 to +20% range were considered to be normals, as they fitted between the standard deviation from the mean in the group of normal children.

[4] = patient group 1, short children
[5] = patient group 2, short children
[6] = patient group 3, short children
[7] = patient group 4, short children
[8] = patient group 5, short children

Molecule | Number of positive (+, >10 μg/L) GH responses (GH secretion [3]; [4]) | Number of positive (+, >10 μg/L) GH responses (GH secretion [3]; [5]) | Number of positive (+, >10 μg/L) GH responses (GH secretion [3]; [6]) | Number of positive (+, >10 μg/L) GH responses (GH secretion [3]; [7]) | Number of positive (+, >10 μg/L) GH responses (GH secretion [3]; [8]) | also measured
GH: exogenous growth hormone given to three children for 9 months | – | – | – | – | – | Growth velocity during GH therapy [1]: 8 cm/yr
CN(C)C(=O)Oc1ccc[n+](C)c1 [pyridostigmine] | – | – | – | – | – | Usefulness as treatment of short stature (GH secretion [2]; literature (Ghigo 1989)): does not represent a useful treatment of short stature
Clc1cccc(Cl)c1NC1=NCCN1 [clonidine, 2-(2,6-dichloroanilino)-2-imidazoline] | 0 | 4 | 2 | 3 | 1 | Share of children appearing GH-deficient on the basis of a low GH response (<10 μg/L) to the provocative test (GH secretion [3]; 24 short children, earlier work-up): 50%; Number of negative (-, <10 μg/L) GH responses (GH secretion [3]; [6]): 2; Effect of pretreatment with clonidine on the GH response to GHRH (GH secretion [3]; patient group 5, malnourished children): did not significantly enhance the GH response to GHRH; Effect on GHRH-induced GH secretion (GH secretion [2]; normal subjects, short, normal children and adults (literature)): enhances the GH response to GHRH
GHRH: growth hormone-releasing hormone, used as GRF 1-29 (Serono, Spain), intravenous bolus (YADAIFTNSYRKVLGQLSARKLLQDIMSR; ends and bridges not checked; UniProt P01286 32-60, looked up, fragment) | 2 | 3 | 3 | 3 | 3 | Number of patients with deficient GHRH-induced GH response (GH peak <10 μg/L) (GH secretion [3]; 24 short children, pretreatment with placebo): 9 patients; Number of negative (-, <10 μg/L) GH responses (GH secretion [3]; [4]): 4; Number of negative (-, <10 μg/L) GH responses (GH secretion [3]; [5]): 2; Mean GH peak response to GHRH (GH secretion [3]; short children, placebo at time 0, GHRH i.v. bolus at 60 minutes): 19.5 ± 15.7 µg/L
